Experiments:
Format in all cases: functional, cell-based
[1] = target: T1, Solute carrier organic anion transporter family member 1A4 (Rattus norvegicus, UniProt O35913); experiment: TP_TRANSPORTER: uptake in Oatp2-expressing HeLa cells; conditions: human
T1 sequence (O35913 whole entry): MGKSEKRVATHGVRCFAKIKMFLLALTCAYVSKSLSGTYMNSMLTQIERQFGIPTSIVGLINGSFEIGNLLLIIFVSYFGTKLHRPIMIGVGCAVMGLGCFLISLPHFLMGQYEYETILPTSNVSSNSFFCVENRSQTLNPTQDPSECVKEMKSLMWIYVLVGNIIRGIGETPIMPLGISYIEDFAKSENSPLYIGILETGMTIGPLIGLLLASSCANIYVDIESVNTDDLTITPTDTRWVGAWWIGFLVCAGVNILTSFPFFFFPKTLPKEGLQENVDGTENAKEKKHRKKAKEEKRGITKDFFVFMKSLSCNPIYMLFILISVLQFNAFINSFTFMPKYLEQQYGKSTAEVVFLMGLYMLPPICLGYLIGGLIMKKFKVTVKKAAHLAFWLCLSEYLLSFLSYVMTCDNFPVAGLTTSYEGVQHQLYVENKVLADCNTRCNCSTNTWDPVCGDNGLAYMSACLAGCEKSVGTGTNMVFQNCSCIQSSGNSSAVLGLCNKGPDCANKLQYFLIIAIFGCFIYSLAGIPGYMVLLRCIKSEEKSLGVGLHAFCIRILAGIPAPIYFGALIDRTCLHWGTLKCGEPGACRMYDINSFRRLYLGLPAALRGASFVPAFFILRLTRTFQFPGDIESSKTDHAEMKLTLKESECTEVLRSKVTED

[2] = target: T2, Solute carrier organic anion transporter family member 1A2 (Homo sapiens, UniProt P46721); experiment: TP_TRANSPORTER: uptake in OATP-expressing HeLa cells
T2 sequence (P46721 whole entry): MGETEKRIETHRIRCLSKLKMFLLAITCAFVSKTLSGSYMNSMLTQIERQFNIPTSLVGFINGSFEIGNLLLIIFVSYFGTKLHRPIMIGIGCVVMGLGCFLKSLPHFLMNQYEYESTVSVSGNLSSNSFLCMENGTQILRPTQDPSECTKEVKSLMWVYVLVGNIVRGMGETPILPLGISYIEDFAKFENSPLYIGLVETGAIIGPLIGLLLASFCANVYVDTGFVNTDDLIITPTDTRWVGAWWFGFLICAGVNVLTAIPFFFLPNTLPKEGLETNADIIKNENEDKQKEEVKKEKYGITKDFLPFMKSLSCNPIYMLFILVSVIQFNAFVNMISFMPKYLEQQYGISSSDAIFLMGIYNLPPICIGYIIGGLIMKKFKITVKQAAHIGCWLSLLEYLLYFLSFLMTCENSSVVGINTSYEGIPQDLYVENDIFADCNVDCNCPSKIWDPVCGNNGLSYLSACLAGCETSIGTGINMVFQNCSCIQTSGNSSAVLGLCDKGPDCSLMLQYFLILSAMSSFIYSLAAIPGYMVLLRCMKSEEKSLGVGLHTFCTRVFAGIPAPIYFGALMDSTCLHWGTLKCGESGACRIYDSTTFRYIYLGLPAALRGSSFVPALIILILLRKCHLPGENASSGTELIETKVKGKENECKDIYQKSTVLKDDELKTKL

[3] = target: T3, Solute carrier organic anion transporter family member 1A1 (Rattus norvegicus, UniProt P46720); experiment: TP_TRANSPORTER: uptake in Oatp1-expressing HeLa cells; conditions: human
T3 sequence (P46720 whole entry): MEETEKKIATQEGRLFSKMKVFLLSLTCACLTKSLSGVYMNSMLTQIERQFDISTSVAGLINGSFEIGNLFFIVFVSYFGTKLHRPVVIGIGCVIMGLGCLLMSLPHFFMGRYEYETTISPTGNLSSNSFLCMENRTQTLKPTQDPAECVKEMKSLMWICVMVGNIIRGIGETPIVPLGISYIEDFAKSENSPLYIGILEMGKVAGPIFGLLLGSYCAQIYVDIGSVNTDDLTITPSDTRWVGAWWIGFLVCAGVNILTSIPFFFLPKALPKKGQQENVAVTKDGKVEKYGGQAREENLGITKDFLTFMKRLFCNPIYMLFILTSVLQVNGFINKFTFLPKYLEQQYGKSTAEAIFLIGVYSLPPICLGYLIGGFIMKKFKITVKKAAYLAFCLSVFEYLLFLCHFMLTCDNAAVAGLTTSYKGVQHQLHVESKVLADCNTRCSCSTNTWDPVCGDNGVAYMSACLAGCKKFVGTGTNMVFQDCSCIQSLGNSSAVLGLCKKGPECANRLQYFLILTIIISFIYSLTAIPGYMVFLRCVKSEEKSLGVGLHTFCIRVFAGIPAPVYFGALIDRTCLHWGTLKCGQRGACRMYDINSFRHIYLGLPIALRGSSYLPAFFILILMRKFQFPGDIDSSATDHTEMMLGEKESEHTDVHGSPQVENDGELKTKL

- Activity [1]: is not a substrate [-]
- Activity [2]: is not a substrate [-]
- Activity [3]: substrate [+]
Compound: CCOC(=O)[C@H](CCc1ccccc1)N[C@@H](C)C(=O)N1CCC[C@H]1C(=O)O [ENALAPRIL]

Reference: ChEMBL document CHEMBL2074475, “Uptake of enalapril and expression of organic anion transporting polypeptide 1 in zonal, isolated rat hepatocytes” (Drug Metab Dispos, 2000)
